The assay concerns MV-4-11 cells. Kind of assay: Gene expression microarray analysis (Affymetrix PrimeView) and GSEA. In kind it is cell-based, human. More on the design: RFU PODN (11730768_x_at) / Fold change /veh PODN (11730768_x_at) / RFU LINC00158 (11744669_a_at) / Fold change /veh LINC00158 (11744669_a_at) / RFU DUSP10 (11751237_a_at) / Fold change /veh DUSP10 (11751237_a_at) / RFU ID3 (11757404_x_at) / Fold change /veh ID3 (11757404_x_at) / RFU PLEKHG5 (11737974_s_at) / Fold change /veh PLEKHG5 (11737974_s_at) / RFU LRRC4B (11730491_at) / Fold change /veh LRRC4B (11730491_at) / RFU GIMAP4 (11747438_a_at) / Fold change /veh GIMAP4 (11747438_a_at) / RFU KRT8 (11758183_x_at) / Fold change /veh KRT8 (11758183_x_at) / RFU CNN1 (11734310_a_at) / Fold change /veh CNN1 (11734310_a_at) / RFU VPS37D (11726825_at) / Fold change /veh VPS37D (11726825_at) / RFU C10orf10 (11716522_x_at) / Fold change /veh C10orf10 (11716522_x_at) / RFU KIR2DL2 /// KIR2DL4 /// KIR2DL5A /// KIR2DL5B /// KIR2DS1 /// KIR2DS2 /// KIR2DS3 /// KIR2DS4 /// KIR3DL3 /// KIR3DL3 /// KIR3DS1 (11738374_at) / Fold change /veh KIR2DL2 /// KIR2DL4 /// KIR2DL5A /// KIR2DL5B /// KIR2DS1 /// KIR2DS2 /// KIR2DS3 /// KIR2DS4 /// KIR3DL3 /// KIR3DL3 /// KIR3DS1 (11738374_at) / RFU C1QL1 (11718748_at) / Fold change /veh C1QL1 (11718748_at) / RFU TMPRSS4 (11747572_a_at) / Fold change /veh TMPRSS4 (11747572_a_at) / RFU HAMP (11756126_x_at) / Fold change /veh HAMP (11756126_x_at) / RFU RNFT2 (11725882_a_at) / Fold change /veh RNFT2 (11725882_a_at) / RFU NR4A2 (11747474_a_at) / Fold change /veh NR4A2 (11747474_a_at) / RFU ABCC12 (11746883_a_at) / Fold change /veh ABCC12 (11746883_a_at) / RFU TMEM136 (11760407_x_at) / Fold change /veh TMEM136 (11760407_x_at) / RFU CLDN22 /// WWC2 (11732394_at) / Fold change /veh CLDN22 /// WWC2 (11732394_at) / RFU HLA-DPB1 (11760878_x_at) / Fold change /veh HLA-DPB1 (11760878_x_at) / RFU SPINT1 (11716480_a_at) / Fold change /veh SPINT1 (11716480_a_at) / RFU GAP43 (11754022_s_at) / Fold change /veh GAP43 (11754022_s_at) / RFU A4GNT (11735810_at) / Fold change /veh A4GNT (11735810_at) / RFU PRB3 (11715151_x_at) / Fold change /veh PRB3 (11715151_x_at) / RFU TUBB4B (11761932_at) / Fold change /veh TUBB4B (11761932_at) / RFU CAPN14 (11732068_a_at) / Fold change /veh CAPN14 (11732068_a_at) / RFU TMCC2 (11721928_a_at) / Fold change /veh TMCC2 (11721928_a_at) / RFU IRGQ (11745062_a_at) / Fold change /veh IRGQ (11745062_a_at) / RFU FAM174B (11720279_a_at) / Fold change /veh FAM174B (11720279_a_at) / RFU TMPRSS4 (11748680_a_at) / Fold change /veh TMPRSS4 (11748680_a_at) / RFU FAM212B (11763350_a_at) / Fold change /veh FAM212B (11763350_a_at) / RFU PLEKHG5 (11743358_a_at) / Fold change /veh PLEKHG5 (11743358_a_at) / RFU ZSCAN30 (11745921_a_at) / Fold change /veh ZSCAN30 (11745921_a_at) / RFU CMKLR1 (11741424_a_at) / Fold change /veh CMKLR1 (11741424_a_at) / RFU LOC101060620 /// MAPK8IP1 (11723275_at) / Fold change /veh LOC101060620 /// MAPK8IP1 (11723275_at) / RFU SPTSSB (11747773_x_at) / Fold change /veh SPTSSB (11747773_x_at) / RFU PRSS12 (11739890_at) / Fold change /veh PRSS12 (11739890_at) / RFU BIN1 (11741810_x_at) / Fold change /veh BIN1 (11741810_x_at) / RFU WNT11 (11732464_a_at) / Fold change /veh WNT11 (11732464_a_at) / RFU C10orf10 (11716521_a_at) / Fold change /veh C10orf10 (11716521_a_at) / RFU C5orf56 (11738089_at) / Fold change /veh C5orf56 (11738089_at) / RFU CYB561 (11721691_x_at) / Fold change /veh CYB561 (11721691_x_at) / RFU ANKRD19P (11752326_a_at) / Fold change /veh ANKRD19P (11752326_a_at) / RFU OR2T12 /// OR2T33 /// OR2T8 (11738714_s_at) / Fold change /veh OR2T12 /// OR2T33 /// OR2T8 (11738714_s_at) / RFU VCAN (11748164_a_at) / Fold change /veh VCAN (11748164_a_at) / RFU JSRP1 (11732532_at) / Fold change /veh JSRP1 (11732532_at) / RFU KRTAP10-11 (11738290_x_at) / Fold change /veh KRTAP10-11 (11738290_x_at) / RFU MYO3A (11730013_a_at) / Fold change /veh MYO3A (11730013_a_at) / RFU EBF3 (11725865_a_at) / Fold change /veh EBF3 (11725865_a_at) / RFU CAMK2N1 (11719241_x_at) / Fold change /veh CAMK2N1 (11719241_x_at) / RFU C5orf56 (11738088_a_at) / Fold change /veh C5orf56 (11738088_a_at) / RFU OLFML3 (11715873_a_at) / Fold change /veh OLFML3 (11715873_a_at) / RFU LOC100653217 /// NTM (11731650_a_at) / Fold change /veh LOC100653217 /// NTM (11731650_a_at) / RFU MAPK11 (11762145_a_at) / Fold change /veh MAPK11 (11762145_a_at) / RFU FIZ1 (11724087_x_at) / Fold change /veh FIZ1 (11724087_x_at) / RFU OASL (11726364_x_at) / Fold change /veh OASL (11726364_x_at) / RFU SOX15 (11748057_x_at) / Fold change /veh SOX15 (11748057_x_at) / RFU CD79A (11719716_a_at) / Fold change /veh CD79A (11719716_a_at) / RFU HIST1H1D (11736915_at) / Fold change /veh HIST1H1D (11736915_at) / RFU CASKIN2 (11723855_a_at) / Fold change /veh CASKIN2 (11723855_a_at) / RFU LOC730098 (11760151_x_at) / Fold change /veh LOC730098 (11760151_x_at) / RFU OR4N2 (11742367_at) / Fold change /veh OR4N2 (11742367_at) / RFU PRRT2 (11749266_a_at) / Fold change /veh PRRT2 (11749266_a_at) / RFU SNX32 (11753110_a_at) / Fold change /veh SNX32 (11753110_a_at) / RFU CDHR5 (11726645_a_at) / Fold change /veh CDHR5 (11726645_a_at) / RFU RCAN1 (11760418_a_at) / Fold change /veh RCAN1 (11760418_a_at) / RFU FAM167A (11723789_a_at) / Fold change /veh FAM167A (11723789_a_at) / RFU FAM26E (11764081_at) / Fold change /veh FAM26E (11764081_at) / RFU ISYNA1 (11749810_s_at) / Fold change /veh ISYNA1 (11749810_s_at) / RFU ACY1 (11761880_at) / Fold change /veh ACY1 (11761880_at) / RFU 11764098_at / Fold change /veh 11764098_at / RFU SAMD14 (11745864_x_at) / Fold change /veh SAMD14 (11745864_x_at) / RFU NPB (11741838_a_at) / Fold change /veh NPB (11741838_a_at) / RFU TMPRSS6 (11731388_a_at) / Fold change /veh TMPRSS6 (11731388_a_at) / RFU KRTAP10-2 (11738614_at) / Fold change /veh KRTAP10-2 (11738614_at) / RFU ARHGAP8 /// PRR5-ARHGAP8 (11727945_x_at) / Fold change /veh ARHGAP8 /// PRR5-ARHGAP8 (11727945_x_at) / RFU KRTAP5-7 /// NADSYN1 (11734609_at) / Fold change /veh KRTAP5-7 /// NADSYN1 (11734609_at) / RFU RASL12 (11751679_a_at) / Fold change /veh RASL12 (11751679_a_at) / RFU CDKN2B (11736163_a_at) / Fold change /veh CDKN2B (11736163_a_at) / RFU PRF1 (11729649_at) / Fold change /veh PRF1 (11729649_at) / RFU, ZNF638 /// ZNF638-IT1 / Fold change vs veh, ZNF638 /// ZNF638-IT1 / RFU, PANK3 / Fold change vs veh, PANK3 / RFU, SH3YL1 / Fold change vs veh, SH3YL1 / RFU, ZEB2 / Fold change vs veh, ZEB2 / RFU, NRIP1 / Fold change vs veh, NRIP1 / RFU, PTTG1IP / Fold change vs veh, PTTG1IP / RFU, CAPN2 / Fold change vs veh, CAPN2 / RFU, MED14 / Fold change vs veh, MED14 / RFU, SNORA58 / Fold change vs veh, SNORA58 / RFU, C1orf63 / Fold change vs veh, C1orf63 / RFU, LRRFIP1 / Fold change vs veh, LRRFIP1 / RFU, NDUFAF7 / Fold change vs veh, NDUFAF7 / RFU, SLC12A2 / Fold change vs veh, SLC12A2 / RFU, IBTK / Fold change vs veh, IBTK / RFU, ESF1 / Fold change vs veh, ESF1 / Fold change vs veh, TMEM50B / RFU, TAOK1 / Fold change vs veh, TAOK1 / RFU, ACBD3 / Fold change vs veh, ACBD3 / RFU, TMA16 / Fold change vs veh, TMA16 / RFU, RWDD3 / Fold change vs veh, RWDD3 / RFU, BCAT1 / Fold change vs veh, BCAT1 / RFU, EDEM3 / Fold change vs veh, EDEM3 / RFU, TMEM33 / Fold change vs veh, TMEM33 / RFU, WDR75 / Fold change vs veh, WDR75 / RFU, AHCTF1 / Fold change vs veh, AHCTF1 / RFU, TFRC / Fold change vs veh, TFRC / RFU, ZDHHC17 / Fold change vs veh, ZDHHC17 / RFU, NOM1 / Fold change vs veh, NOM1 / RFU, ARL8B / Fold change vs veh, ARL8B / RFU, ZBTB11 / Fold change vs veh, ZBTB11 / RFU, TAMM41 / Fold change vs veh, TAMM41 / RFU, KIAA1704 /// LOC100996395 / Fold change vs veh, KIAA1704 /// LOC100996395 / RFU, ING1 / Fold change vs veh, ING1 / RFU, TRMT61B / Fold change vs veh, TRMT61B / RFU, FUBP3 / Fold change vs veh, FUBP3 / RFU, TP53 / Fold change vs veh, TP53 / RFU, TNKS2 / Fold change vs veh, TNKS2 / RFU, ZFP14 / Fold change vs veh, ZFP14 / RFU, ACTR2 / Fold change vs veh, ACTR2 / RFU, PPP3R1 / Fold change vs veh, PPP3R1 / RFU, PIK3R1 / Fold change vs veh, PIK3R1 / RFU, HNRNPA1 / Fold change vs veh, HNRNPA1 / RFU, RNF170 / Fold change vs veh, RNF170 / RFU, ZNF28 / Fold change vs veh, ZNF28 / RFU, RNGTT / Fold change vs veh, RNGTT / RFU, OGT / Fold change vs veh, OGT / RFU, BRD1 / Fold change vs veh, BRD1 / RFU, MARS / Fold change vs veh, MARS / RFU, ZNF655 / Fold change vs veh, ZNF655 / RFU, FAHD1 / Fold change vs veh, FAHD1 / RFU, BDP1 / Fold change vs veh, BDP1 / RFU, LRRCC1 / Fold change vs veh, LRRCC1 / RFU, ARID1A / Fold change vs veh, ARID1A / RFU, ZNF146 / Fold change vs veh, ZNF146 / RFU, ZNF330 / Fold change vs veh, ZNF330 / RFU, GPN3 / Fold change vs veh, GPN3 / RFU, C9orf123 / Fold change vs veh, C9orf123 / RFU, N4BP2L2 / Fold change vs veh, N4BP2L2 / RFU, ARFIP1 / Fold change vs veh, ARFIP1 / RFU, FAM179B / Fold change vs veh, FAM179B / RFU, BCL10 / Fold change vs veh, BCL10 / RFU, UHRF1BP1L / Fold change vs veh, UHRF1BP1L / RFU, BET1 / Fold change vs veh, BET1 / RFU, CNOT2 / Fold change vs veh, CNOT2 / RFU, ZNF268 / Fold change vs veh, ZNF268 / Fold change vs veh, ZNF507 / RFU, DGCR2 / Fold change vs veh, DGCR2 / RFU, WDSUB1 / Fold change vs veh, WDSUB1 / Fold change vs veh, HSP90B1 /// MIR3652 / RFU, ADSS / Fold change vs veh, ADSS / RFU, GK / Fold change vs veh, GK / RFU, ZNF148 / Fold change vs veh, ZNF148 / RFU, TAF9 / Fold change vs veh, TAF9 / RFU, SLC1A5 / Fold change vs veh, SLC1A5 / RFU, SLMO2 / Fold change vs veh, SLMO2 / RFU, ABCC4 / Fold change vs veh, ABCC4 / RFU, LOC101060439 /// RAP1B / Fold change vs veh, LOC101060439 /// RAP1B / RFU, RFX7 / Fold change vs veh, RFX7 / RFU, GTPBP10 / Fold change vs veh, GTPBP10 / RFU, CNEP1R1 / Fold change vs veh, CNEP1R1 / RFU, BIVM-ERCC5 /// ERCC5 / Fold change vs veh, BIVM-ERCC5 /// ERCC5 / RFU, ILF3 / Fold change vs veh, ILF3 / RFU 11762660_at / Fold change /veh 11762660_at / RFU VCAN (11757783_s_at) / Fold change /veh VCAN (11757783_s_at) / RFU DDX43 (11728927_at) / Fold change /veh DDX43 (11728927_at) / RFU KRT8 (11758188_x_at) / Fold change /veh KRT8 (11758188_x_at) / RFU NKD1 (11759106_at) / Fold change /veh NKD1 (11759106_at) / RFU SRD5A1 (11742802_a_at) / Fold change /veh SRD5A1 (11742802_a_at) / RFU TPSAB1 /// TPSB2 (11721975_s_at) / Fold change /veh TPSAB1 /// TPSB2 (11721975_s_at) / RFU GSTM3 (11746129_a_at) / Fold change /veh GSTM3 (11746129_a_at) / RFU IL23R (11737362_x_at) / Fold change /veh IL23R (11737362_x_at) / RFU TMEM51 (11727254_a_at) / Fold change /veh TMEM51 (11727254_a_at) / RFU PIWIL2 (11732686_x_at) / Fold change /veh PIWIL2 (11732686_x_at) / RFU ORM1 (11744905_x_at) / Fold change /veh ORM1 (11744905_x_at) / RFU CCDC152 (11743942_at) / Fold change /veh CCDC152 (11743942_at) / RFU ECM1 (11717891_a_at) / Fold change /veh ECM1 (11717891_a_at) / RFU IL23R (11748794_a_at) / Fold change /veh IL23R (11748794_a_at) / RFU TNFAIP8L3 (11732012_x_at) / Fold change /veh TNFAIP8L3 (11732012_x_at) / RFU MBOAT4 (11741988_at) / Fold change /veh MBOAT4 (11741988_at) / RFU 11764193_at / Fold change /veh 11764193_at / RFU TMEM53 (11763286_at) / Fold change /veh TMEM53 (11763286_at) / RFU MAGEB2 (11727129_at) / Fold change /veh MAGEB2 (11727129_at) / RFU TMEM200A (11744735_a_at) / Fold change /veh TMEM200A (11744735_a_at) / RFU CCDC152 (11751479_a_at) / Fold change /veh CCDC152 (11751479_a_at) / RFU FAM211A (11726209_a_at) / Fold change /veh FAM211A (11726209_a_at) / RFU RGS16 (11746705_a_at) / Fold change /veh RGS16 (11746705_a_at) / RFU VCAN (11755009_s_at) / Fold change /veh VCAN (11755009_s_at) / RFU RHOB (11743442_s_at) / Fold change /veh RHOB (11743442_s_at) / RFU RGS16 (11720943_a_at) / Fold change /veh RGS16 (11720943_a_at) / RFU RGS16 (11720944_at) / Fold change /veh RGS16 (11720944_at) / RFU, VPS4B / Fold change vs veh, VPS4B / RFU, CREB1 / Fold change vs veh, CREB1 / RFU, DNAJC13 / Fold change vs veh, DNAJC13 / RFU, GNAQ / Fold change vs veh, GNAQ / RFU, CDK5R1 / Fold change vs veh, CDK5R1 / RFU, ZRANB3 / Fold change vs veh, ZRANB3 / RFU, CUL4A / Fold change vs veh, CUL4A / RFU, CCNY / Fold change vs veh, CCNY / RFU, UFL1 / Fold change vs veh, UFL1 / RFU, COG3 / Fold change vs veh, COG3 / RFU, DIAPH2 / Fold change vs veh, DIAPH2 / RFU, SKA2 / Fold change vs veh, SKA2 / RFU, AFF3 / Fold change vs veh, AFF3 / RFU, LMF1 / Fold change vs veh, LMF1 / RFU, IPO11 / Fold change vs veh, IPO11 / RFU, DFFB / Fold change vs veh, DFFB / RFU, FOXP1 / Fold change vs veh, FOXP1 / RFU, CARD8 / Fold change vs veh, CARD8 / RFU, STRN3 / Fold change vs veh, STRN3 / RFU, ADK / Fold change vs veh, ADK / RFU, RASSF2 / Fold change vs veh, RASSF2 / RFU, WIPF1 / Fold change vs veh, WIPF1 / RFU, LARP1B / Fold change vs veh, LARP1B / RFU, RASA1 / Fold change vs veh, RASA1 / RFU, RB1 / Fold change vs veh, RB1 / RFU, PPFIA1 / Fold change vs veh, PPFIA1 / RFU, MAT2A / Fold change vs veh, MAT2A / RFU, CCT5 / Fold change vs veh, CCT5 / RFU, WDR92 / Fold change vs veh, WDR92 / RFU, CUX1 / Fold change vs veh, CUX1 / RFU, TTC7A / Fold change vs veh, TTC7A / RFU, TMEM135 / Fold change vs veh, TMEM135 / RFU, DEPTOR / Fold change vs veh, DEPTOR / RFU, CPM / Fold change vs veh, CPM / RFU, DNAJB6 / Fold change vs veh, DNAJB6 / RFU, CACNA2D3 / Fold change vs veh, CACNA2D3 / RFU, DTX4 / Fold change vs veh, DTX4 / RFU, TFCP2 / Fold change vs veh, TFCP2 / RFU, GMCL1 /// GMCL1P1 / Fold change vs veh, GMCL1 /// GMCL1P1 / RFU, AEBP2 / Fold change vs veh, AEBP2 / RFU, SNHG1 /// SNORD22 /// SNORD25 /// SNORD26 /// SNORD27 /// SNORD28 /// SNORD29 /// SNORD31 / Fold change vs veh, SNHG1 /// SNORD22 /// SNORD25 /// SNORD26 /// SNORD27 /// SNORD28 /// SNORD29 /// SNORD31 / Fold change (Aza/veh), C12orf56 (ProbeSet 11735607_a_at) / Fold change (ACY-1035/veh), C12orf56 (ProbeSet 11735607_a_at) / Fold change (Aza/veh), FGFR1OP (ProbeSet 11751329_s_at) / Fold change (ACY-1035/veh), FGFR1OP (ProbeSet 11751329_s_at) / Fold change (Aza/veh), VPS36 (ProbeSet 11739960_a_at) / Fold change (ACY-1035/veh), VPS36 (ProbeSet 11739960_a_at) / RFU SYPL1 (11715823_x_at) / Fold change /veh SYPL1 (11715823_x_at) / RFU IGFBP7 (11715501_s_at) / Fold change /veh IGFBP7 (11715501_s_at) / RFU REEP3 (11722064_at) / Fold change /veh REEP3 (11722064_at) / RFU IGLL1 (11728026_x_at) / Fold change /veh IGLL1 (11728026_x_at): dose or concentration left out as unconfirmed. As to conditions: ProbeSet 11716999_a_at; LIST D.

For the compound `Nc1ccc(-c2cccs2)cc1NC(=O)c1ccc2c(c1)cc(C1CC1)n2CCN1CCOCC1` [ACY-1035], the “Fold change vs veh, RASA1” value is 0.84.
